The values below come from US10513495B2, “Polymorph of pimavanserin tartrate and preparation method thereof and use of same” (SHANGHAI BEGREAT PHARMATECH, priority 2016, dated 2019).

Where a name gives a salt, the structure may show the parent alone.

The series is described as follows: Powder fluidity test (angle of repose). It is filed as physicochemical. The conditions noted are these: for powder flowability (in words): Form III compared to existing Pimavanserin tartrate Form A, B and C; for angle of repose: powder through two funnels onto 7 cm diameter petri dish, α=arc tg(H/R), average of three measurements, ≤30 degrees good, >40 degrees very poor flowability, tartrate. Here is the method:
Powder fluidity test: the tray is a 7 cm diameter petri dish. The two glass funnels are overlapped on the iron frame. The distance between the lower funnel outlet and the Petri dish is 3.5-6.0 cm. Pimavanserin tartrate salt was added slowly from the upper funnel, and the sample was gradually accumulated on the petri dish through the buffer of the two funnels to form a cone until the highest cone was obtained. Determine the height H of the cone, measure each sample three times, take the average value, and calculate the angle of repose according to the following formula: α=arc tg(H/R) where α is the angle of repose and R is the radius of the dish
When the angle of repose of the powder is less than or equal to 30 degrees, it means the flowability of this powder is good. While in case, 40 degrees or less of the powder angle of repose, this powder can satisfy the demand for fluidity in the production process. When the angle of repose of the powder is more than 40 degrees, it means the very poor flowability of the drug powder which may cause the troubles above mentioned during the drug manufacturing process.

Consider `CC(C)COc1ccc(CNC(=O)N(Cc2ccc(F)cc2)C2CCN(C)CC2)cc1` [Form A, N-(4-fluorobenzyl)-N-(1-methylpiperidin-4-yl)-N′-[4-(2-methylpropoxy)phenylmethyl]urea tartrate], for which the “powder flowability (in words)” value was “poor” and the angle of repose is recorded as 45°.
Take `CC(C)COc1ccc(CNC(=O)N(Cc2ccc(F)cc2)C2CCN(C)CC2)cc1` [Form B, N-(4-fluorobenzyl)-N-(1-methylpiperidin-4-yl)-N′-[4-(2-methylpropoxy)phenylmethyl]urea tartrate]: the “powder flowability (in words)” value is given as “poor” and the angle of repose worked out at 43°.
Regarding `CC(C)COc1ccc(CNC(=O)N(Cc2ccc(F)cc2)C2CCN(C)CC2)cc1` [Form C, N-(4-fluorobenzyl)-N-(1-methylpiperidin-4-yl)-N′-[4-(2-methylpropoxy)phenylmethyl]urea tartrate], the “powder flowability (in words)” value was “poor” and the angle of repose is reported as 41°.
Regarding `CC(C)COc1ccc(CNC(=O)N(Cc2ccc(F)cc2)C2CCN(C)CC2)cc1` [Form III, N-(4-fluorobenzyl)-N-(1-methylpiperidin-4-yl)-N′-[4-(2-methylpropoxy)phenylmethyl]urea tartrate], the “powder flowability (in words)” value is reported as “significantly improves the powder flowability” and the angle of repose was determined as 32°.
